Laboratory results as given in US20120232058A1, “SUBSTITUTED PYRIDINE DERIVATIVES AND THEIR MEDICAL USE” (NEUROSEARCH A/S, priority 2009, published 2012).

Assays:
human Kv7.2+3 [1] = molecular target: T1, human Kv7.2+3 (Homo sapiens, UniProt O43525+O43526); experiment: FLIPR-based thallium influx characterization of Kv7.2+3 modulators; assay type: cell-based; parameters: expressed in transfected cells; host or cells: HEK293; settings: for EC50: HEK293 cells over-expressing human Kv7.2+3, Tl+ influx, relative to retigabine control responses; for Efficacy: maximal response relative to the reference (retigabine) response
Procedure: This experiment determines the ability of a test compound to modulate the activity of Kv7.2+3 channels heterologously expressed in human HEK293 cells. The ability is determined relative to retigabine. The activity is determined using a standard thallium (I) sensitive assay, e.g. using a fluorometric method in a Fluorescent Image Plate Reader (FLIPR) as described below in more detail.
Full concentration/response curves are generated and EC50 values are calculated based on max values. EC50 values (Effective Concentration) represent the concentration of the test substance, at which 50% of the channel activity is obtained when compared to retigabine control responses. Maximal response determined relative to the reference (retigabine) response is calculated.
Human HEK293 cells over-expressing human Kv7.2+3 are grown in culture medium (DMEM supplemented with 10% foetal bovine serum), in polystyrene culture flasks ([…]) in a humidified atmosphere of 5% CO2 in air, at 37° C. Cell confluence should be 80-90% on day of plating. Cells are rinsed with 4 ml of PBS (phosphate buffered saline) and incubated 2 min with 1 ml of Trypsin-EDTA. After addition of 25 ml of culture medium cells are re-suspended by trituration with a 25 ml pipette.
The cells are seeded at a density of ˜3×10^6 cells/ml (25 μl/well) in black-walled, clear bottom, 384-well plates pre-treated with 0.01 g/I poly-D-lysin (20 μl/well for 30 min). Plated cells were allowed to proliferate for 24 h before loading with dye.
BTC-AM ([…], Invitrogen) is added 25.5 μl DMSO. The BTC-AM stock solution (2 mM) is diluted to a final concentration of 2 μM in Cl^− free assay buffer (in mM: 140 Na^+-gluconate, 2.5 K^+-gluconate, 6 Ca2^+-gluconate, 1 Mg^2+ gluconate, 5 glucose, 10 HEPES, pH 7.3) containing 2 μM ouabain, 2 mM amaranth and 1 mM tartrazine. […]
After the loading period, the TI^+-sensitive BTC fluorescence signal is measured over time using a FLIPR.
• Temperature: Room temp. • First addition: 12 μl test or control compound after 15 sec at a rate of 30 μl/sec and starting height of 20 μl • Second addition: 12 μl stimulus buffer (CI^− free assay buffer supplemented with 1 mM TI2SO4, 5 mM K2SO4 as well as the quenchers amaranth (2 mM) and tartrazine (1 mM)) is added after an additional 3 minutes at a rate of 30 μl/sec and starting height of 30 μl • Reading intervals: First sequence—3 sec×5, 2 sec×24 and 5 sec×25 Second sequence—1 sec×5, 2 sec×24 and 5 sec×36 Addition plates (compound plate and stimulus plate) are placed in positions 2 and 3, respectively. […] Fluorescence obtained after stimulation is corrected for the mean basal fluorescence (in Cl^− free assay buffer). […]

human Kv7.2+3 [2] = molecular target: T1, human Kv7.2+3; experiment: patch-clamp, HEK293 cell lines stably expressing human Kv7.2+3 channels; assay type: cell-based; parameters: expressed in transfected cells; settings: −30 mV, 20 ms, baseline current defined as 100%
Text: The effect obtained by these channel activators is described as a percentage increase in baseline current at a given concentration. The baseline current is defined as 100%, and an increase in current is expressed relative to this, i.e. an increase from 1 nA to 1.2 nA is reported as 120%.

EC50 (human Kv7.2+3 [1]) [nM]	Efficacy (human Kv7.2+3 [1]) [%]	IK (%) (human Kv7.2+3 [2]; conc. 0.3 μM)	IK (%) (human Kv7.2+3 [2]; conc. 0.03 μM)	SMILES
4100	102	180	–	Cc1ccoc1C(=O)Nc1c(C)cc(N2CCCOCC2)nc1C [Compound 1.2, 3-Methyl-furan-2-carboxylic acid(2,4-dimethyl-6-[1,4]oxazepan-4-yl-pyridin-3-yl)-amide]
34	82	249	177 (n = 2) %	Cc1ccoc1C(=O)Nc1c(C)cc(N2CCCOCC2)nc1C(C)C [Compound 1.1, 3-Methyl-furan-2-carboxylic acid(2-isopropyl-4-methyl-6-[1,4]oxazepan-4-yl-pyridin-3-yl)-amide]
